We go through four compounds from ChEMBL document CHEMBL1201862, “PubChem BioAssay data set” (2004).

Some test systems named below: 786-0; ACHN; DU-145; EKVX; HCT-15; KM12; MCF7; MDA-MB-231; MDA-N; NCI-H460; RPMI-8226; RXF 393; SK-MEL-28; SNB-19; TK-10; UACC-257; UACC-62; CAKI-1; OVCAR-8.
What all share (assay): NCI anticancer screen, dose series, 48 h

Each structure is given as a SMILES string.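 Each compound was tested at five concentrations against cells in 96-well plates for 48 hours. Here, GI50 denotes the concentration required for 50% inhibition of growth.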 Calls of active or inactive are those of the source. No stated cut-off is given here; in the data, active = GI50 up to about 1.1 µM and inactive = higher.

`Clc1ccc(/C=C/c2nc(-c3ccc(Cl)cc3)cn3c2nc2ccccc23)cc1`: the GI50 with 786-0 is > 100 µM (inactive); with ACHN, > 100 µM (inactive); in the experiment on DU-145, > 100 µM (inactive); with EKVX, > 100 µM (inactive); in the experiment on HCT-15 it was more than 100 µM; with KM12, > 100 µM (inactive). For the same compound, the GI50 in the experiment with MCF7 was 50.5 µM (inactive); in the experiment with MDA-MB-231 it was > 100 µM (inactive); with MDA-N, > 100 µM (inactive); in the experiment with NCI-H460, > 100 µM (inactive); in the experiment with RPMI-8226, > 100 µM (inactive); in the experiment with RXF 393, > 100 µM (inactive). For the same compound, the GI50 with SK-MEL-28, with SNB-19, in the experiment on TK-10, with UACC-257 and in the experiment on UACC-62 was > 100 µM (inactive) throughout.
As to `COC(=O)C1Cc2cc3c(cc2C1)CCC3`, the GI50 is > 100 µM (inactive) in the experiment with 786-0; > 100 µM (inactive) in the experiment with ACHN; > 100 µM (inactive) with CAKI-1; > 100 µM (inactive) in the experiment on DU-145; > 100 µM (inactive) in the experiment with EKVX; more than 100 µM with HCT-15. The GI50 in the experiment on KM12, in the experiment on MCF7, in the experiment on MDA-MB-231, in the experiment on MDA-N, in the experiment with NCI-H460 and in the experiment with OVCAR-8 was > 100 µM (inactive) in each case. Also, the GI50 in the experiment with RPMI-8226 is > 100 µM (inactive); with RXF 393, > 100 µM (inactive); with SK-MEL-28, > 100 µM (inactive); in the experiment with SNB-19 it was > 100 µM (inactive); in the experiment on TK-10, 3.65 µM (inactive); in the experiment with UACC-257 it was > 100 µM (inactive). Further, the GI50 with UACC-62 is > 100 µM (inactive).
Take `CC(=O)/C(=C\c1ccc(Cl)c(Cl)c1)C(=O)C(C)CN(C)C` (stereo not given): the GI50 in the experiment on 786-0 was 2.39 µM (inactive); with ACHN it was 5.24 µM (inactive); with CAKI-1, 4.48 µM (inactive); in the experiment on DU-145, 4.43 µM (inactive); in the experiment on EKVX, 14.2 µM (inactive); in the experiment on HCT-15, 2.33 µM. For the same compound, the GI50 with KM12 was 2.18 µM (inactive); with MCF7, 3.61 µM (inactive); in the experiment on MDA-MB-231, 11.5 µM (inactive); in the experiment on MDA-N, 3.62 µM (inactive); in the experiment on NCI-H460 it was 12.5 µM (inactive); in the experiment with OVCAR-8 it was 1.91 µM (inactive). Besides, the GI50 was 1.32 µM (inactive) in the experiment with RPMI-8226; 6.89 µM (inactive) with SK-MEL-28; 1.8 µM (inactive) in the experiment with SNB-19; 1.94 µM (inactive) in the experiment on TK-10; 10.4 µM (inactive) with UACC-257.
In the case of `O=C1c2ccccc2C(=O)c2c1c1cc(O)ccc1n2Cc1ccc(Cl)cc1Cl`, the GI50 is 2.75 µM (inactive) in the experiment on 786-0; 3.9 µM (inactive) in the experiment on CAKI-1; 8.13 µM (inactive) in the experiment with DU-145; 5.66 µM with HCT-15; 14.4 µM (inactive) in the experiment on KM12; 4.11 µM (inactive) in the experiment on MCF7. Further, the GI50 is 3.85 µM (inactive) in the experiment on MDA-MB-231; 12.1 µM (inactive) with MDA-N; 3.63 µM (inactive) with NCI-H460; 4.57 µM (inactive) in the experiment on OVCAR-8; 7.18 µM (inactive) with RPMI-8226; 2.14 µM (inactive) in the experiment on RXF 393. Moreover, the GI50 is 17.3 µM (inactive) in the experiment on SK-MEL-28; 13.4 µM (inactive) in the experiment with SNB-19; 9.29 µM (inactive) in the experiment on TK-10; 25.1 µM (inactive) in the experiment on UACC-257; 7.66 µM (inactive) in the experiment on UACC-62.
